Measurements: patent US12558348B2, “Bioactive phytochemicals” (Phytoquest Limited, priority 2019, dated 2026)

Tested on: TNF-α
Test: Production of TNF-α by human monocytic cell line THP-1
Format: cell-based
Procedure: THP-1 cells are commercially available. Cultured cells can be placed in RPMI complete medium in microtitre plates (e.g. […] in 96 well plates) and after 24 hrs incubation, PMA (10 ng/mi) added to 96 well plate to differentiate THP-1 cells and to determine the effects on TNF-α and IL-10 production. The cells should be pre-treated with cucumber extract at, for example, 200 μg/ml to 25 μg/ml followed by 2 hr LPS (100 ng/ml) stimulation. Post incubation, the cell supernatant is aspirated from each of the wells into sterile micro centrifuge tubes and centrifuged at 1000 rpm for 2-3 mins to settle any cells if present. The cell supernatant is then used for evaluation of presence of TNF-α or IL-10 using ELISA. Sandwich ELISA plates coated with suitable antibody are widely available (e.g. R&D Systems, USA).
A second study indicated even greater activity for idoBR1 in human blood (significant at 0.01 μM) with pre-incubation. […] The data clearly indicate that idoBR1 can inhibit the production of TNF-α in human blood. Thus, it appears that it may be a potent anti-inflammatory agent. It also appears that it may be acting via a novel mechanism distinct from the steroid receptor pathways.

In the case of `CC#C[C@]1(O)CC[C@H]2[C@@H]3CCC4=CC(=O)CCC4=C3[C@@H](c3ccc(N(C)C)cc3)C[C@@]21C` [Mifepristone, reference compound], the “effect on TNF-α production from THP-1 cells” value (alone with LPS) is reported as “greatly amplified”.

For `C[C@@H]1C[C@H]2[C@@H]3CCC4=CC(=O)C=C[C@]4(C)[C@@]3(F)[C@@H](O)C[C@]2(C)[C@@]1(O)C(=O)CO` [dexamethasone, reference compound], the inhibition at 50 µM (Homo sapiens, THP-1, 50 μM, identical pretreatment) was over 65%.
